From ChEMBL document CHEMBL1201862, “PubChem BioAssay data set” (2004)
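Where inhibition never reached the appropriate level, the endpoint shown equals the highest concentration tested. Otherwise, values were interpolated linearly from a five-concentration, 48-hour dose response in 96-well plates. GI50 marks 50% less growth.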 Active and inactive are the calls of the source. No stated cut-off is given here; in the data, active = GI50 up to about 1.1 µM and inactive = higher.

How the values were obtained:
Assay in all cases: NCI-60 cell line screen, 48 h
786-0 = tested on: 786-0
A549 = tested on: A549
ACHN = tested on: ACHN
CCRF-CEM = tested on: CCRF-CEM
COLO 205 = tested on: COLO 205
DMS-114 = tested on: DMS-114
DMS-273 = tested on: DMS-273
EKVX = tested on: EKVX
HCT-116 = tested on: HCT-116
HL-60 = tested on: HL-60
HOP-18 = tested on: HOP-18
HOP-92 = tested on: HOP-92
HT-29 = tested on: HT-29
IGROV-1 = tested on: IGROV-1
K562 = tested on: K562
LXFL 529 = tested on: LXFL 529
M14 = tested on: M14
MOLT-4 = tested on: MOLT-4
Malme-3M = tested on: Malme-3M
NCI-H226 = tested on: NCI-H226
NCI-H23 = tested on: NCI-H23
OVCAR-3 = tested on: OVCAR-3
OVCAR-4 = tested on: OVCAR-4
OVCAR-8 = tested on: OVCAR-8
RPMI-8226 = tested on: RPMI-8226
SF-268 = tested on: SF-268
SF-295 = tested on: SF-295
SK-MEL-28 = tested on: SK-MEL-28
SK-OV-3 = tested on: SK-OV-3
SN12C = tested on: SN12C
SNB-19 = tested on: SNB-19
SNB-75 = tested on: SNB-75
SNB-78 = tested on: SNB-78
U-251 = tested on: U-251
UACC-257 = tested on: UACC-257
UO-31 = tested on: UO-31
XF498 = tested on: XF498
A498 = tested on: A498
DLD-1 = tested on: DLD-1
HCC 2998 = tested on: HCC 2998
HCT-15 = tested on: HCT-15
HOP-62 = tested on: HOP-62
KM-20L2 = tested on: KM-20L2
KM12 = tested on: KM12
LOX IMVI = tested on: LOX IMVI
M19-MEL = tested on: M19-MEL
MCF7 = tested on: MCF7
NCI-H460 = tested on: NCI-H460
NCI-H522 = tested on: NCI-H522
NCI/ADR-RES = tested on: NCI/ADR-RES
OVCAR-5 = tested on: OVCAR-5
RXF 393 = tested on: RXF 393
SF-539 = tested on: SF-539
SK-MEL-2 = tested on: SK-MEL-2
SK-MEL-5 = tested on: SK-MEL-5
SW-620 = tested on: SW-620
UACC-62 = tested on: UACC-62

[O-][S+](Cc1ccccn1)c1nc2ccccc2nc1-c1ccccc1 (stereo not given)
GI50 (786-0): 47.2 µM (inactive) | GI50 (A549): 47.2 µM (inactive) | GI50 (ACHN): 48.1 µM (inactive) | GI50 (CCRF-CEM): 38.6 µM (inactive) | GI50 (COLO 205): 18.8 µM (inactive) | GI50 (DMS-114): 28.2 µM (inactive) | GI50 (DMS-273): 26.1 µM (inactive) | GI50 (EKVX): 30.7 µM (inactive) | GI50 (HCT-116): 33.4 µM (inactive) | GI50 (HL-60): 20.8 µM (inactive) | GI50 (HOP-18): 80.4 µM (inactive) | GI50 (HOP-92): 28.3 µM (inactive) | GI50 (HT-29): 44.4 µM (inactive) | GI50 (IGROV-1): 36 µM (inactive) | GI50 (K562): 31.3 µM (inactive) | GI50 (LXFL 529): 31.9 µM (inactive) | GI50 (M14): 36 µM (inactive) | GI50 (MOLT-4): 38.3 µM (inactive) | GI50 (Malme-3M): 33.1 µM (inactive) | GI50 (NCI-H226): 18.9 µM (inactive) | GI50 (NCI-H23): 34.8 µM (inactive) | GI50 (OVCAR-3): 44.9 µM (inactive) | GI50 (OVCAR-4): 26.9 µM (inactive) | GI50 (OVCAR-8): 26.5 µM (inactive) | GI50 (RPMI-8226): 19.9 µM (inactive) | GI50 (SF-268): 66.1 µM (inactive) | GI50 (SF-295): 27.9 µM (inactive) | GI50 (SK-MEL-28): 53.8 µM (inactive) | GI50 (SK-OV-3): 55.7 µM (inactive) | GI50 (SN12C): 35.3 µM (inactive) | GI50 (SNB-19): 62.4 µM (inactive) | GI50 (SNB-75): 26.3 µM (inactive) | GI50 (SNB-78): 21.2 µM (inactive) | GI50 (U-251): 41.5 µM (inactive) | GI50 (UACC-257): 33.1 µM (inactive) | GI50 (UO-31): 37.7 µM (inactive) | GI50 (XF498): 17.5 µM (inactive)

Nc1ncc2c(n1)-c1ccccc1OC2
GI50 (A498): 51.2 µM (inactive) | GI50 (A549): > 100 µM (inactive) | GI50 (CCRF-CEM): > 100 µM (inactive) | GI50 (COLO 205): > 100 µM (inactive) | GI50 (DLD-1): > 100 µM (inactive) | GI50 (DMS-114): > 100 µM (inactive) | GI50 (DMS-273): > 80.5 µM (inactive) | GI50 (EKVX): 94.4 µM (inactive) | GI50 (HCC 2998): > 100 µM (inactive) | GI50 (HCT-116): > 100 µM (inactive) | GI50 (HCT-15): > 100 µM | GI50 (HL-60): > 100 µM (inactive) | GI50 (HOP-18): > 100 µM (inactive) | GI50 (HOP-62): 76 µM (inactive) | GI50 (HOP-92): 98.4 µM (inactive) | GI50 (HT-29): > 100 µM (inactive) | GI50 (IGROV-1): 40.4 µM (inactive) | GI50 (K562): > 100 µM (inactive) | GI50 (KM-20L2): > 100 µM (inactive) | GI50 (KM12): > 100 µM (inactive) | GI50 (LOX IMVI): > 100 µM (inactive) | GI50 (M19-MEL): > 100 µM (inactive) | GI50 (MCF7): > 100 µM (inactive) | GI50 (MOLT-4): > 100 µM (inactive) | GI50 (Malme-3M): > 100 µM (inactive) | GI50 (NCI-H226): 36.6 µM (inactive) | GI50 (NCI-H23): > 100 µM (inactive) | GI50 (NCI-H460): > 100 µM (inactive) | GI50 (NCI-H522): > 100 µM (inactive) | GI50 (NCI/ADR-RES): > 100 µM (inactive) | GI50 (OVCAR-3): > 100 µM (inactive) | GI50 (OVCAR-4): > 31.6 µM (inactive) | GI50 (OVCAR-5): > 100 µM (inactive) | GI50 (OVCAR-8): > 100 µM (inactive) | GI50 (RPMI-8226): > 100 µM (inactive) | GI50 (RXF 393): > 69.2 µM (inactive) | GI50 (SF-268): > 100 µM (inactive) | GI50 (SF-295): > 100 µM (inactive) | GI50 (SF-539): > 100 µM (inactive) | GI50 (SK-MEL-28): > 100 µM (inactive) | GI50 (SK-MEL-2): > 100 µM (inactive) | GI50 (SK-MEL-5): > 100 µM (inactive) | GI50 (SK-OV-3): > 100 µM (inactive) | GI50 (SN12C): > 100 µM (inactive) | GI50 (SNB-19): > 100 µM (inactive) | GI50 (SNB-75): 22.6 µM (inactive) | GI50 (SNB-78): > 100 µM (inactive) | GI50 (SW-620): > 100 µM (inactive) | GI50 (U-251): > 100 µM (inactive) | GI50 (UACC-257): > 100 µM (inactive) | GI50 (UACC-62): 55.7 µM (inactive) | GI50 (UO-31): 45.2 µM (inactive) | GI50 (XF498): > 100 µM (inactive)
